Assay results as given in paper PMC2635097 (Molecular pharmacology, 2008).
“And” between values parts separate entries of the source, which are not always exact repeats. Equal entries are not always repeated. Positions of bridges follow the written chain, without caps; N, C: chain ends. No end group written: not given here.

How the values were obtained:
[1] = target: hKCa3.1 (Homo sapiens, UniProt O15554); assay: Whole-cell patch-clamp of KCa3.1 currents; assay type: cell-based
[2] = target: hKCa2.1 (Homo sapiens, UniProt Q92952); assay: Whole-cell patch-clamp of KCa2.1 currents; assay type: cell-based
Sequence of hKCa2.1 (Q92952 whole entry): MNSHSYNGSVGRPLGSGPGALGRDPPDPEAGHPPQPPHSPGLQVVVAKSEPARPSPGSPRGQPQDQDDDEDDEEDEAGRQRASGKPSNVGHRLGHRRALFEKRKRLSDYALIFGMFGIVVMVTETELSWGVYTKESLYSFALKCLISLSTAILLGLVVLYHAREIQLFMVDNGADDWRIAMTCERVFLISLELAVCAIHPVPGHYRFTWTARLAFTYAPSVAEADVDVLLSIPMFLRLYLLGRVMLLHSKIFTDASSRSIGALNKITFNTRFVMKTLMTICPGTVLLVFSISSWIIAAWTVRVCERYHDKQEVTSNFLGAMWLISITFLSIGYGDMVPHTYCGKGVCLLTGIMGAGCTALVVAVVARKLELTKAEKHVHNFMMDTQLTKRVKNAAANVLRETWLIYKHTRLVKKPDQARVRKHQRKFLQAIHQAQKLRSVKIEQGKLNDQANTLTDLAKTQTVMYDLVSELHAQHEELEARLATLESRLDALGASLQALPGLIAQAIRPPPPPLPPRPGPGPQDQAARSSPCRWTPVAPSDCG

[3] = target: rKCa2.2 (Rattus norvegicus, UniProt P70604); assay: Whole-cell patch-clamp of KCa2.2 currents; assay type: cell-based
Sequence of rKCa2.2 (P70604 whole entry): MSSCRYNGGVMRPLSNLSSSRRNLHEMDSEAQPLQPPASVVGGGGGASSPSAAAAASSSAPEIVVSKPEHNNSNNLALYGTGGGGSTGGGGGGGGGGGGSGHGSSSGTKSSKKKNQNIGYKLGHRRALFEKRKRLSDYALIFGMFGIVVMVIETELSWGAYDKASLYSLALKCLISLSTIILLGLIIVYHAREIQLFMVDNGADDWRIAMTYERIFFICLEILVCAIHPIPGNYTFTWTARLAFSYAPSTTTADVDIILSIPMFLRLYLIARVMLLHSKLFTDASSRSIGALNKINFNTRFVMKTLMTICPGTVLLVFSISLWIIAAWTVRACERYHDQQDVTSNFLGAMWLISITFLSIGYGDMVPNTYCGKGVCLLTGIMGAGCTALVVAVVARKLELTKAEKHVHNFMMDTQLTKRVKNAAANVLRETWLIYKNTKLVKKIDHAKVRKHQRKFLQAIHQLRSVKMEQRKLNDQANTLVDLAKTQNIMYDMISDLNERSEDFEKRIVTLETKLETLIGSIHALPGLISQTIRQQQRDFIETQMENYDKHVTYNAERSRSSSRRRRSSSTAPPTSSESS

[4] = target: hKCa1.1 (Homo sapiens, UniProt Q12791); assay: Selectivity patch-clamp, KCa1.1 currents; assay type: cell-based; details: 1 μM free Ca2+
Sequence of hKCa1.1 (Q12791 whole entry): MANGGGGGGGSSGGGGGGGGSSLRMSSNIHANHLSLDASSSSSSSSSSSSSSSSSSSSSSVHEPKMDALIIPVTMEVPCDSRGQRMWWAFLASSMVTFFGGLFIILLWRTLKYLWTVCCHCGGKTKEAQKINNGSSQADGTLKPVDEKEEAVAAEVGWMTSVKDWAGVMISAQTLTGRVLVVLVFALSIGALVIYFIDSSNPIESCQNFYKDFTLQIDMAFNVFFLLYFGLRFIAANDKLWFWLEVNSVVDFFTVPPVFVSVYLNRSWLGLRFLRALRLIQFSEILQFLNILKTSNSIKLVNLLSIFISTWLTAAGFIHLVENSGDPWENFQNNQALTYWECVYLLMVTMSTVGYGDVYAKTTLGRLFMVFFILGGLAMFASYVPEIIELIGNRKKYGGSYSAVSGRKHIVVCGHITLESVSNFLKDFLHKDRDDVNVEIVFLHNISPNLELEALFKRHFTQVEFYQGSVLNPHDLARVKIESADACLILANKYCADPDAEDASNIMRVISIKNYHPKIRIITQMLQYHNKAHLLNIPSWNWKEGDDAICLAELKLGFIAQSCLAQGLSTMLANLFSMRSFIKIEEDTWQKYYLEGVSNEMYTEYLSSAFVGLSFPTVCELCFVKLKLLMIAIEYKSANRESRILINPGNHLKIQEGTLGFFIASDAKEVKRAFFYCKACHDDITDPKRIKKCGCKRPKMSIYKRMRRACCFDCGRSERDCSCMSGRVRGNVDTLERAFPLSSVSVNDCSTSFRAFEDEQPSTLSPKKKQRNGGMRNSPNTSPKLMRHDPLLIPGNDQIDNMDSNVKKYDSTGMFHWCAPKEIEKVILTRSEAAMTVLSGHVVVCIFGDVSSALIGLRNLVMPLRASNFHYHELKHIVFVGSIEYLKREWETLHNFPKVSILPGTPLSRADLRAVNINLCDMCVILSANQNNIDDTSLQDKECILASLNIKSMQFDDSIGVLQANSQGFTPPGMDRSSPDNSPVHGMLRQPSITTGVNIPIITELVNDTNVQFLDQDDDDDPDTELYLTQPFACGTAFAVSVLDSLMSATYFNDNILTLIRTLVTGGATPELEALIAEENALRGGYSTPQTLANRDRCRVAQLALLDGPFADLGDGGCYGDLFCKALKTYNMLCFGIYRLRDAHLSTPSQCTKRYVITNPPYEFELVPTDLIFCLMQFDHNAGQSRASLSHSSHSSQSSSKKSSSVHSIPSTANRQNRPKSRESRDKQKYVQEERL

[5] = target: mKv1.1 (Mus musculus, UniProt P16388); assay: Selectivity patch-clamp, Kv1.1 currents; assay type: cell-based
Sequence of mKv1.1 (P16388 whole entry): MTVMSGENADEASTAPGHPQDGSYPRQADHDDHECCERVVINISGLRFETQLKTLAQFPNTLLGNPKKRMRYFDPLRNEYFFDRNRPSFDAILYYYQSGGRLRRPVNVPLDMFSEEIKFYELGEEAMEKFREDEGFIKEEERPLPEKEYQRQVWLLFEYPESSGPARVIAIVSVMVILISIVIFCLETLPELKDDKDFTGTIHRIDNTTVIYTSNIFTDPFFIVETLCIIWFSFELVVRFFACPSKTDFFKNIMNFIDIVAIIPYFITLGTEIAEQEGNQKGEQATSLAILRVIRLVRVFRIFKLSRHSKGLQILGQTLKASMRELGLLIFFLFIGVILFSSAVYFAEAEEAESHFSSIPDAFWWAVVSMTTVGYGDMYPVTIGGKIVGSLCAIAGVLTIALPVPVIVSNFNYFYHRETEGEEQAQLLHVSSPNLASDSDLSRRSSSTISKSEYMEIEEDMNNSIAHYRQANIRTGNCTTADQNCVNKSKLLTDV

[6] = target: hKv1.5 (Homo sapiens, UniProt P22460); assay: Selectivity patch-clamp, Kv1.5 currents; assay type: cell-based
Sequence of hKv1.5 (P22460 whole entry): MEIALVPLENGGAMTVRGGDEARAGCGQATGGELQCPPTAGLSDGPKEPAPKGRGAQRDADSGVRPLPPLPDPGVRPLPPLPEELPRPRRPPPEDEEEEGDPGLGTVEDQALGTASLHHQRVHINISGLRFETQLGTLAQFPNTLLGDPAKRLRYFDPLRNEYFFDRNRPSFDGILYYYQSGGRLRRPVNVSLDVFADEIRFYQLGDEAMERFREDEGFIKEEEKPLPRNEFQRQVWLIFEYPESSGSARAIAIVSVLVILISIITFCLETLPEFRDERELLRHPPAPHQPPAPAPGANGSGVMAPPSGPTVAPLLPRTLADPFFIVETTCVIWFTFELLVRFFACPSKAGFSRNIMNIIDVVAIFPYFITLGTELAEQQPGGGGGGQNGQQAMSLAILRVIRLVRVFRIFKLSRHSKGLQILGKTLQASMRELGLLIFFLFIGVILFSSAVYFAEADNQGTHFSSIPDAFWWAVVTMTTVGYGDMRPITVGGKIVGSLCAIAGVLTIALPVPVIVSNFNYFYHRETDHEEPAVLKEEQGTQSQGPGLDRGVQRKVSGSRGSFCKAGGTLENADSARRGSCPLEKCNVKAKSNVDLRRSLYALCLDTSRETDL

[7] = target: mKv3.1 (Mus musculus, UniProt P15388); assay: Selectivity patch-clamp, Kv3.1 currents; assay type: cell-based
Sequence of mKv3.1 (P15388 whole entry): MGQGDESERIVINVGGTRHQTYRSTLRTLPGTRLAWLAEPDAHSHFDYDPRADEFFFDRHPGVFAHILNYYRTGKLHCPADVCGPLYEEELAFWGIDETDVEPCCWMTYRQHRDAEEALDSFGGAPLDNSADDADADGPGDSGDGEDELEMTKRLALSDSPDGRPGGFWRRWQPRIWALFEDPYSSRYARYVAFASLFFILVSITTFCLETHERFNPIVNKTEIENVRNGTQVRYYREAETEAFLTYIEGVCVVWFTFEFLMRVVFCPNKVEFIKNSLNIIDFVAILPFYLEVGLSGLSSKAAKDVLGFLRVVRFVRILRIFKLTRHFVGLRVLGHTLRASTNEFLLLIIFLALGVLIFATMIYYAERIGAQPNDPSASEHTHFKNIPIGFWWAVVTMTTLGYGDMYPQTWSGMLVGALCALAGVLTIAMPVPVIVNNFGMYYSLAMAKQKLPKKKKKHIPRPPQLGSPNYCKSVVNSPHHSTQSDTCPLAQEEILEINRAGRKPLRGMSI

[8] = target: Rat Kv3.2 (Rattus norvegicus, UniProt P22462); assay: Selectivity patch-clamp, Kv3.2 currents; assay type: cell-based
Sequence of Rat Kv3.2 (P22462 whole entry): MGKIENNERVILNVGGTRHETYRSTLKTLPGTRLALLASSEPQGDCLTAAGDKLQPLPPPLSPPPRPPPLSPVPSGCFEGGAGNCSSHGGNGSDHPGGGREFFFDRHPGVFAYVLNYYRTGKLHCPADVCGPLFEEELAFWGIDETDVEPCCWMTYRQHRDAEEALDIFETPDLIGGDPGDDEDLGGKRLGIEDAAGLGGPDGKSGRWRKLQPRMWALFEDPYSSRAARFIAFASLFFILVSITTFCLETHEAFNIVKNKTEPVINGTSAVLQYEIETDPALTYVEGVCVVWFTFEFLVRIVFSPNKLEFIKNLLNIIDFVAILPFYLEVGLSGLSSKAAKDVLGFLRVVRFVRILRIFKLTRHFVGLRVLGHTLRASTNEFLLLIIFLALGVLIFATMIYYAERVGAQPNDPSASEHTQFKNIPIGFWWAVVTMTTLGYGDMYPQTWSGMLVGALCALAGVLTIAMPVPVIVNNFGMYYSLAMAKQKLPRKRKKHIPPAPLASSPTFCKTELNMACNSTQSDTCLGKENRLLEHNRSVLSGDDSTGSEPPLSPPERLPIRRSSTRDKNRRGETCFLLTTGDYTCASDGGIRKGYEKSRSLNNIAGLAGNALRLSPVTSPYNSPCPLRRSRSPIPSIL

[9] = target: T1, rKv4.2 (Rattus norvegicus, UniProt Q63881); assay: Selectivity patch-clamp, Kv4.2 currents; assay type: cell-based
T1 sequence (Q63881 1-630): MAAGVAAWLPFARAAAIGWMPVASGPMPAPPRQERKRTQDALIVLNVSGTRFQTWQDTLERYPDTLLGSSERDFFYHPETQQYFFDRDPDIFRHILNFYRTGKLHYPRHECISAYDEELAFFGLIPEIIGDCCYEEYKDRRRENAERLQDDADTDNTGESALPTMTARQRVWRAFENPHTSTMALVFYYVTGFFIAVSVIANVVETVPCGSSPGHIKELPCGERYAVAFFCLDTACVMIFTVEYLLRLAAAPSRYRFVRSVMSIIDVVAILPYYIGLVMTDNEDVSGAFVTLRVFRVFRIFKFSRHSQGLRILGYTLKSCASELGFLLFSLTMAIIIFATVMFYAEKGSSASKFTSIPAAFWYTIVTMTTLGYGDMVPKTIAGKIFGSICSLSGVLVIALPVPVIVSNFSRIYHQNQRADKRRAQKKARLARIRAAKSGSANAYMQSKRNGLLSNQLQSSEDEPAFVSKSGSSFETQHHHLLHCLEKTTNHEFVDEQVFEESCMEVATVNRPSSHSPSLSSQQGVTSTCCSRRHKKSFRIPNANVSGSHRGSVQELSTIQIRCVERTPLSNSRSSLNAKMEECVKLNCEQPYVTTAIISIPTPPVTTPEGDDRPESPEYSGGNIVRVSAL

[10] = target: T2, K2P2.1 (TREK-1) (Mus musculus, UniProt P97438); assay: Selectivity patch-clamp, endothelial cell TREK-1 currents; assay type: cell-based
T2 sequence (P97438 1-426): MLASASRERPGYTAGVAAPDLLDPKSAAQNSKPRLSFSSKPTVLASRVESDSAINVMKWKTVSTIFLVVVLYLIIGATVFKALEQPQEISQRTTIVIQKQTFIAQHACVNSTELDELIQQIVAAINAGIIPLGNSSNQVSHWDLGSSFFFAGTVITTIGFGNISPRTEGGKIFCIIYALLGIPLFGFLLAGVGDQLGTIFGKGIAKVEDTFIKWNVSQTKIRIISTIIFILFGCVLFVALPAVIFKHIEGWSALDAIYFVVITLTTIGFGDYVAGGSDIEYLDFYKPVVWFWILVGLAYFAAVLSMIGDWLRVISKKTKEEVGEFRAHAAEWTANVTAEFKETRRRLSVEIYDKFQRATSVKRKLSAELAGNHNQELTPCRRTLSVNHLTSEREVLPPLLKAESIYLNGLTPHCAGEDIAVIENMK

[11] = target: Nav1.2 (Mus musculus, UniProt B1AWN6); assay: Selectivity patch-clamp, Nav1.2 currents from N1E-115 cells; assay type: cell-based
[12] = target: hKCa2.3 (Homo sapiens, UniProt Q9UGI6); assay: Whole-cell patch-clamp of KCa2.3 currents; assay type: cell-based
[13] = target: hNav1.4 (Homo sapiens, UniProt P35499); assay: Selectivity patch-clamp, Nav1.4 currents; assay type: cell-based
[14] = target: Rat Nav1.5 (Rattus norvegicus, UniProt P15389); assay: Selectivity patch-clamp, Nav1.5 currents; assay type: cell-based
[15] = logP; assay type: physicochemical
[16] = tested on: mice; assay: Maximal electroshock; assay type: in vivo, mouse; details: 100 mg/kg i.p., 15 min, 30 min and 1 hour
[17] = tested on: mice; assay type: in vivo, mouse; details: 100 mg/kg i.p., 15 min, 30 min and 1 hour
[18] = target: mKv1.3 (Mus musculus, UniProt P16390); assay: Selectivity patch-clamp, Kv1.3 currents; assay type: cell-based
[19] = target: Cav1.2 (Oryctolagus cuniculus, UniProt P15381); assay: Selectivity patch-clamp, Cav1.2 currents; assay type: cell-based
[20] = target: glutamate site of NMDA receptors (Rattus norvegicus, UniProt Q00959); assay: NMDA receptor radioligand binding assay
[21] = tested on: Jurkat E61 and MEL cells; assay: Cytotoxicity assay; assay type: cell-based; details: concentrations up to 100 μM; 48 h
[22] = Pharmacokinetics in rats; assay type: in vivo; details: rat; for peak total plasma concentration: 2 h
[23] = Plasma protein binding by ultrafiltration; assay type: in vitro ADME, rat
[24] = tested on: murine carotid artery; assay: Pressure myography, EDHF-type dilation of carotid artery; set-up: species or system mouse
[25] = tested on: wt and KCa3.1−/− mice; assay: Telemetric blood pressure in normotensive mice; assay type: in vivo, mouse; details: for MAP over 24 h: mean ± SEM; for lowering of mean arterial pressure (MAP): over 24 h
[26] = tested on: wt mice infused with Ang-II; assay: Telemetric blood pressure in angiotensin-II-induced hypertension; assay type: in vivo, mouse; details: 30 mg/kg i.p.
[27] = target: Kv11.1 (HERG) (Homo sapiens, UniProt Q12809)
[28] = male, Sprague-Dawley, plasma, iv, 10 mg/kg

Sequence of hKCa3.1 (O15554 whole entry): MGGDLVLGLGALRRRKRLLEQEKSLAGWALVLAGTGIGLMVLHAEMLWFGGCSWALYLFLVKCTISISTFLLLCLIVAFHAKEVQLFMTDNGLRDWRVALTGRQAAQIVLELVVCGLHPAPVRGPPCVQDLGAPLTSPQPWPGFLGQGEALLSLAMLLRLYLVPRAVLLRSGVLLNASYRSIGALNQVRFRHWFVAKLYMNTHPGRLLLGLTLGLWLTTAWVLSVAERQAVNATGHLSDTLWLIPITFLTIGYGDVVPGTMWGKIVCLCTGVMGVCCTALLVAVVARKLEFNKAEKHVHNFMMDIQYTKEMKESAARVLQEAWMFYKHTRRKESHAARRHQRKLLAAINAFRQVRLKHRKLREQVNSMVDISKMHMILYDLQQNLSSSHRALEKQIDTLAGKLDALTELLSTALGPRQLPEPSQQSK

Nc1nc2ccc(OC(F)(F)F)cc2s1 [Riluzole, 2-amino-6-[trifluoromethoxy]benzothiazole, reference compound]
EC50 [1]: 1.9 µM | increase of KCa3.1 currents ([1]; 250 nM [Ca2+]i): ~30 fold | increase of KCa3.1 currents ([1]; 1 μM [Ca2+]i): roughly 3 fold | EC50 [2]: 21 µM | EC50 [3]: 12.8 µM | effect on KCa1.1 current at 100 μM ([4]; 100 μM): Doubles current at 100 μM | IC50 [5]: 92 ± 7 µM | IC50 [6]: 95 ± 5 µM | IC50 [7]: 95 ± 5 µM | IC50 [8]: 100 ± 10 µM | IC50 [9]: 130 ± 10 µM | EC50 [10]: 110 ± 35 µM | IC50 [11]: 15 ± 3 µM

Nc1nc2ccc3cc4ccccc4cc3c2s1 [SKA-20, Anthra[2,1-d]thiazol-2-ylamine]
EC50 ([12]; read-out: EC50 KCa2.3 activation, 250 nM [Ca2+]i): 1.2 µM | EC50 [1]: 0.115 µM | EC50 [2]: 0.43 µM | EC50 [3]: 1.9 µM | effect on KCa1.1 current at 10 μM ([4]; 10 μM): No effect at 10 μM | Kv1.1 block at 10 μM ([5]; 10 μM): 12 ± 3%block at 10 μM | Kv3.1 block at 10 μM ([7]; 10 μM): 35 ± 3% block at 10 μM | Kv3.2 block at 10 μM ([8]; 10 μM): 12 ± 5% block at 10 μM | Kv4.2 block at 10 μM ([9]; 10 μM): 10 ± 3% block at 10 μM | K2P2.1 (TREK-1) effect at 10 μM ([10]; 10 μM): No effect at 10 μM | IC50 [11]: 14 ± 2 µM | Nav1.4 block at 10 μM ([13]; 10 μM): No effect at 10 μM | Nav1.5 block at 10 μM [14]: 30 ± 5% block at 10 μM | logP [15]: 3.1

Nc1nc2cc3c(cc2s1)CCC3 [SKA-29, 6,7-Dihydro-5H-indeno[5,6-d]thiazol-2-amine]
protection from seizures, maximal electroshock (MES) model [16]: effectively protect mice from seizures | protection from seizures, 6 Hz minimal electroshock model [17]: effectively protect mice from seizures

Nc1nc2c(ccc3ccccc32)s1 [SKA-31, naphtho[1,2-d]thiazol-2-ylamine]
effect on KCa1.1 current at 25 μM ([4]; 25 μM): No effect at 25 μM | Kv1.1 block at 25 μM ([5]; 25 μM): No effect at 25 μM | Kv1.3 block at 25 μM [18]: 20 ± 5% block at 25 μM | Kv1.5 block at 25 μM ([6]; 25 μM): 20 ± 5% block at 25 μM | Kv4.2 block at 25 μM ([9]; 25 μM): No effect at 25 μM | K2P2.1 (TREK-1) effect at 25 μM ([10]; 25 μM): No effect at 25 μM | Nav1.4 block at 25 μM ([13]; 25 μM): 20 ± 5 % block at 25 μM | Cav1.2 block at 25 μM [19]: No effect at 25 μM | effect in NMDA receptor binding assay at 25 μM [20]: no effect | cytotoxicity [21]: not cytotoxic | Tmax ([22]; male, Sprague-Dawley, plasma, ip, 30 mg/kg): 2 h | concentration at 1 h [22, 28]: 5000 nM | concentration at 24 h [22, 28]: 2500 nM | concentration at 48 h [22, 28]: 2000 nM | concentration at 80 h [22, 28]: 2000 nM | peak total plasma concentration ([22]; i.p. 10 mg/kg): 25 µM | plasma concentrations higher than tissue concentrations ([22]; i.p. 10 mg/kg, 2 h (plasma peak)): 4–8 fold | peak total plasma concentration ([22]; i.p. 30 mg/kg): 37 µM | total plasma concentration, peak at 3 min ([22]; i.v. 10 mg/kg, 3 min): 30 µM | unbound (free) fraction ([23]; rat plasma spiked with 10 μM): 61 ± 1.7% and 61% | fraction unbound at 15 min, 10 μM ([23]; rat, plasma): 0.61 | effect on carotid artery diameter in the absence of acetylcholine ([24]; 0.01 to 1 μM): did not dilate or contract | potentiation of residual KCa2.3-mediated EDHF-type response ([24]; carotid arteries of KCa3.1−/− mice, 0.1 to 1 μM): did not potentiate | increase in EDHF-type dilation at 1 μM ([24]; wt carotid artery, 100 nM acetylcholine, 1 μM): two- to three-fold increase in dilation | MAP over 24 h ([25]; KCa3.1−/− mice, 10 mg/kg i.p.): 104.3 ± 1.5 mmHg | MAP over 24 h ([25]; KCa3.1−/− mice, 30 mg/kg i.p.): 102.9 ± 0.6 mmHg | effect on mean arterial pressure (MAP) ([25]; KCa3.1−/− mice, 10 and 30 mg/kg i.p.): no blood pressure lowering effects | effect on heart rate ([25]; any of the groups): did not alter heart rate | effect on mean arterial pressure (MAP) ([25]; normotensive wt mice, 1 mg/kg i.p.): ineffective | lowering of mean arterial pressure (MAP) ([25]; normotensive wt mice, 10 mg/kg i.p.): 4 mmHg | lowering of mean arterial pressure (MAP) ([25]; normotensive wt mice, 30 mg/kg i.p.): 6 mmHg | MAP over 24 h ([25]; wt mice, 1 mg/kg i.p.): 99.0 ± 2.0 mmHg | MAP over 24 h ([25]; wt mice, 10 mg/kg i.p.): 95.8 ± 1.3 mmHg | MAP over 24 h ([25]; wt mice, 30 mg/kg i.p.): 94.1 ± 1.3 mmHg | MAP ([26]; Ang-II hypertensive wt mice, mean ± SEM): 120 ± 4 mmHg | lowering of mean arterial pressure (MAP) ([26]; angiotensin-II-induced hypertension, wt mice): 12 mmHg | protection from seizures, maximal electroshock (MES) model [16]: effectively protect mice from seizures | protection from seizures, 6 Hz minimal electroshock model [17]: effectively protect mice from seizures | logP [15]: 2.2 | Kv11.1 (HERG) block at 25 μM [27]: No effect at 25 μM

apamin (CNCKAPETALCARRCQQH-NH2; disulfide 1-11, 3-15; ends not checked; UniProt P01500 28-45, looked up)
IC50 ([12]; read-out: IC50 blockade of hKCa2.3 currents, currents activated with 10 μM SKA-31, 250 nM free Ca2+): ~0.001 µM
